From patent publication EP4635944A1, “2-AZABICYCLO[3.1.1]HEPTANE COMPOUND” (Daiichi Sankyo Company, Limited, priority 2022, dated 2024)

Target: T1, human OX2R (Homo sapiens, UniProt O43614)
T1 construct: host or cells: CHO-K1 (Chinese Hamster Ovary K1)
T1 sequence (O43614 1-444): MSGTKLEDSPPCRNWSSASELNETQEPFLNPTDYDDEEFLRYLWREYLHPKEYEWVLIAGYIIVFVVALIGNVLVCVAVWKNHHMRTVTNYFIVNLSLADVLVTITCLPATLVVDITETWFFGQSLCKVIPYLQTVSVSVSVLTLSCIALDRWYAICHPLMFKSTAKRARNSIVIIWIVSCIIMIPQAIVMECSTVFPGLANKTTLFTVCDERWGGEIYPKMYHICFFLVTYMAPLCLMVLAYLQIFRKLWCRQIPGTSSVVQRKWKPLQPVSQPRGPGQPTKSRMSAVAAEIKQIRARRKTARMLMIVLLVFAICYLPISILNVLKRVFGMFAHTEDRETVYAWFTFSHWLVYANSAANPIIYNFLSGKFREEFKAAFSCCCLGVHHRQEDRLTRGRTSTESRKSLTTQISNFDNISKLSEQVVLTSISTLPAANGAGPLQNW
Test: Evaluation of OX2R agonist activity (intracellular calcium, CHO-K1 cells with forced expression of human OX2R)
Assay type: cell-based
Conditions: CHO-K1 cells expressing human OX2R; 100% = 5 µM of the reference compound; read-out: hOX2R EC50
Procedure, shortened: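 Cells seeded 7500/well, cultured 24 h, loaded with Fluo 4-AM (2.5 µg/mL final) plus probenecid for 30 min. Calcium response read as 480/540 nm excitation ratio; max–min signal 5–7 s after compound addition, normalized to buffer (0%) and 5 µM reference agonist (100%). EC50 from concentration series; 0.5% DMSO final.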

SMILES	EC50 [µM]
CC(C)(O)C(=O)N1C2CC(C2)[C@H](NS(C)(=O)=O)[C@@H]1Cc1cccc(-c2cc(F)cc(Cl)c2)c1F [Example 52, N-[(3S,4S)-3-[(3'-Chloro-2,5'-difluoro[biphenyl]-3-yl)methyl]-2-(2-hydroxy-2-methylpropanoyl)-2-azabicyclo[3.1.1]heptan-4-yl]methanesulfonamide]	0.034
[2H]c1c([2H])c([2H])c(-c2cccc(C[C@H]3[C@@H](NS(C)(=O)=O)C4CC(C4)N3C(=O)[C@@H](C)O)c2F)c([2H])c1[2H] [Example 54, N-{(3S,4S)-3-{[2-Fluoro(2',3',4',5',6'-^2H5)[biphenyl]-3-yl]methyl}-2-[(2R)-2-hydroxypropanoyl]-2-azabicyclo[3.1.1]heptan-4-yl}methanesulfonamide]	0.022
CS(=O)(=O)N[C@@H]1[C@H](Cc2cccc(-c3ccccc3)c2F)N(C(=O)c2cocn2)C2CC1(F)C2 [Example 55, N-[(3S,4R)-5-Fluoro-3-[(2-fluoro[biphenyl]-3-yl)methyl]-2-(1,3-oxazol-4-ylcarbonyl)-2-azabicyclo[3.1.1]heptan-4-yl]methanesulfonamide]	0.591
CCC(=O)N1C2CC(C2)[C@H](NS(C)(=O)=O)[C@@H]1Cc1cccc(-c2ccccc2)c1F [Example 56, N-{(3S,4S)-3-[(2-Fluoro[biphenyl]-3-yl)methyl]-2-propanoyl-2-azabicyclo[3.1.1]heptan-4-yl}methanesulfonamide]	0.244
CC(C)C(=O)N1C2CC(C2)[C@H](NS(C)(=O)=O)[C@@H]1Cc1cccc(-c2ccccc2)c1F [Example 57, N-[(3S,4S)-3-[(2-Fluoro[biphenyl]-3-yl)methyl]-2-(2-methylpropanoyl)-2-azabicyclo[3.1.1]heptan-4-yl]methanesulfonamide]	0.038
CS(=O)(=O)N[C@H]1C2CC(C2)N(C(=O)[C@H](O)C2CC2)[C@H]1Cc1cccc(-c2ccccc2)c1F [Example 64, N-{(3S,4S)-2-[(2R)-2-Cyclopropyl-2-hydroxyacetyl]-3-[(2-fluoro[biphenyl]-3-yl)methyl]-2-azabicyclo[3.1.1]heptan-4-yl}methanesulfonamide]	0.041
CCOC(=O)N1C2CC(C2)[C@H](NS(C)(=O)=O)[C@@H]1Cc1cccc(-c2ccccc2)c1F [Example 65, Ethyl (3S,4S)-3-[(2-fluoro[biphenyl]-3-yl)methyl]-4-[(methylsulfonyl)amino]-2-azabicyclo[3.1.1]heptane-2-carboxylate]	0.393
CS(=O)(=O)N[C@@H]1[C@H](Cc2cccc(-c3ccccc3)c2F)N(C(=O)[C@@H]2C[C@@H]2F)C2CC1(F)C2 [Example 66, N-[(3S,4R)-5-Fluoro-3-[(2-fluoro[biphenyl]-3-yl)methyl]-2-{[(1S,2S)-2-fluorocyclopropyl]carbonyl}-2-azabicyclo[3.1.1]heptan-4-yl]methanesulfonamide]	0.057
C[C@@H](O)C(=O)N1C2CC(C2)[C@H](NS(C)(=O)=O)[C@@H]1Cc1cccc(-c2csc(Cl)c2)c1F [Example 68, N-{(3S,4S)-3-[3-(5-Chlorothiophen-3-yl)-2-fluorobenzyl]-2-[(2R)-2-hydroxypropanoyl]-2-azabicyclo[3.1.1]heptan-4-yl}methanesulfonamide]	0.037
CS(=O)(=O)N[C@@H]1[C@H](Cc2cccc(-c3ccccc3)c2F)N(C(=O)[C@H](O)C(F)(F)F)C2CC1(F)C2 [Example 69, N-{(3S,4R)-5-Fluoro-3-[(2-fluoro[biphenyl]-3-yl)methyl]-2-[(2S)-3,3,3-trifluoro-2-hydroxypropanoyl]-2-azabicyclo[3.1.1]heptan-4-yl}methanesulfonamide]	0.035
CS(=O)(=O)N[C@@H]1[C@H](Cc2cccc(-c3ccccc3)c2F)N(C(=O)[C@H]2CCO2)C2CC1(F)C2 [Example 70, N-{(3S,4R)-5-Fluoro-3-[(2-fluoro[biphenyl]-3-yl)methyl]-2-[(2R)-oxetan-2-ylcarbonyl]-2-azabicyclo[3.1.1]heptan-4-yl}methanesulfonamide]	0.026
CS(=O)(=O)N[C@@H]1[C@H](Cc2cccc(-c3ccccc3)c2F)N(C(=O)C2(O)CC2)C2CC1(F)C2 [Example 71, N-{(3S,4R)-5-Fluoro-3-[(2-fluoro[biphenyl]-3-yl)methyl]-2-[(1-hydroxycyclopropyl)carbonyl]-2-azabicyclo[3.1.1]heptan-4-yl}methanesulfonamide]	0.039
CS(=O)(=O)N[C@H]1C2CC(C2)N(C(=O)C2(CO)CC2)[C@H]1Cc1cccc(-c2ccccc2)c1F [Example 73, N-[(3S,4S)-3-[(2-Fluoro[biphenyl]-3-yl)methyl]-2-{[1-(hydroxymethyl)cyclopropyl]carbonyl}-2-azabicyclo[3.1.1]heptan-4-yl]methanesulfonamide]	0.05
CS(=O)(=O)N[C@H]1C2CC(C2)N(C(=O)[C@H](O)CF)[C@H]1Cc1cccc(-c2ccccc2)c1F [Example 75, N-{(3S,4S)-3-[(2-Fluoro[biphenyl]-3-yl)methyl]-2-[(2S)-3-fluoro-2-hydroxypropanoyl]-2-azabicyclo[3.1.1]heptan-4-yl}methanesulfonamide]	0.078
CS(=O)(=O)N[C@@H]1[C@H](Cc2cccc(-c3ccccc3)c2F)N(C(=O)[C@@H]2CC2(F)F)C2CC1(F)C2 [Example 78, N-{(3S,4R)-2-{[(1S)-2,2-Difluorocyclopropyl]carbonyl}-5-fluoro-3-[(2-fluoro[biphenyl]-3-yl)methyl]-2-azabicyclo[3.1.1]heptan-4-yl}methanesulfonamide]	0.069
CS(=O)(=O)N[C@@H]1[C@H](Cc2cc(F)cc(-c3ccccc3)c2F)N(C(=O)[C@H](O)C(F)(F)F)C2CC1(F)C2 [Example 79, N-{(3S,4R)-3-[(2,5-Difluoro[biphenyl]-3-yl)methyl]-5-fluoro-2-[(2S)-3,3,3-trifluoro-2-hydroxypropanoyl]-2-azabicyclo[3.1.1]heptan-4-yl}methanesulfonamide]	0.04
[2H]C([2H])([2H])[C@@]([2H])(O)C(=O)N1C2CC(F)(C2)[C@H](NS(=O)(=O)CC)[C@@H]1Cc1cccc(-c2ccccc2)c1F [Example 90, N-{(3S,4R)-5-Fluoro-3-[(2-fluoro[biphenyl]-3-yl)methyl]-2-[(2R)-2-hydroxy(^2H4)propanoyl]-2-azabicyclo[3.1.1]heptan-4-yl}ethanesulfonamide]	0.021
CC(C(=O)N1C2CC(C2)[C@H](NS(C)(=O)=O)[C@@H]1Cc1cccc(-c2ccccc2)c1F)n1cccn1 (stereo partly drawn) [Example 93, N-{(3S,4S)-3-[(2-Fluoro[biphenyl]-3-yl)methyl]-2-[2-(1H-pyrazol-1-yl)propanoyl]-2-azabicyclo[3.1.1]heptan-4-yl}methanesulfonamide]	0.023
